From US10604512B2, “3-(1H-indol-2-yl)-1H-indazoles and therapeutic uses thereof” (Samumed, LLC, priority 2015, dated 2020) come the findings set out here.

Holding throughout (assay type): cell-based
For one test, the system named is IL-6. In words: Inhibition of IL-6 in LPS-stimulated THP-1 human monocyte cells (HTRF). The conditions noted are these: for EC50: IL-6 inhibition, LPS-stimulated THP-1 cells, HTRF; for inhibition at 10 µM: THP-1, printed beside >10 μM EC50, top concentration 10 μM, meaning not given, read-out: percentage in parentheses after EC50 >10. In a few lines: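 THP-1 cells serum-reduced (1% FBS, 24 h), then 5000 cells/well preincubated 2 h with compound (10-point 1:3 series from 10 μM, 0.1% DMSO) before 500 ng/mL LPS for 22 h at 37 °C. Secreted IL-6 quantified by HTRF 665/620 ratio; DMSO-normalised duplicates fitted to four-parameter EC50; above 10 μM, % inhibition at 10 μM given.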
A general note: Time-resolved FRET reads energy transfer from a long-lived donor to a nearby acceptor.

In a further test the test system is SW480 colon cancer cells. In words: Cell viability assay (CellTiter-Blue) in SW480 colon cancer cells. The conditions noted are these: Homo sapiens, 96 h, four days; for EC50: CellTiter-Blue; for inhibition at 10 µM: given where EC50 >10 μM, read-out: percent inhibition at 10 μM. In a few lines: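 Approximately 2×10^3 SW480 cells per well are seeded with compound (8 points, threefold steps, top 10 μM) and incubated four days at 37 °C. CellTiter-Blue is then added for about 3 h and fluorescence read. Non-linear regression gives EC50; for values beyond 10 μM, percent inhibition at that concentration is listed.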
(In general: Resazurin is reduced to fluorescent resorufin, in cell work by metabolically active cells.)

Test [1] relates to primary human mesenchymal stem cells (hMSCs). In words: Induction of chondrogenesis in primary human mesenchymal stem cells (nodule imaging, Rhodamine B / Nile Red). The conditions noted are these: for EC50: concentration required to induce 50% levels of chondrogenesis vs TGF-β3 positive control, read-out: Conc (nM) of 50% TGF-β3 activity; for Emax: maximum chondrogenesis activity relative to TGF-β3 (10 ng/mL) positive control, read-out: Max. Activity as % TGF-β3 activity. As for the experimental part: Representative compounds were screened using primary human mesenchymal stem cells (hMSCs) to determine their ability to induce chondrogenesis (process by which cartilage is developed).
Primary human mesenchymal stem cells (hMSCs) were purchased from Lonza (Walkersville, Md.) and expanded in Mesenchymal Stem Cell Growth Media (Lonza). Cells between passage 3 and 6 were used for the experiments.
Each compound was dissolved in DMSO as a 10 mM stock and used to prepare compound source plates. For the 96 well assay, serial dilution (1:3, 6-point dose-response curves from 2700 nM to 10 nM) and compound transfer was performed using the ECHO 550 (Labcyte, Sunnyvale, Calif.) into 96-well clear bottom assay plates (Greiner Bio-One) with appropriate DMSO backfill for a final DMSO concentration of 0.03%. hMSCs were plated at 20,000 cells/well in 250 μL/well Incomplete Chondrogenic Induction Medium (Lonza; DMEM, dexamethasone, ascorbate, insulin-transferrin-selenium [ITS supplement], gentamycin-amphotericin [GA-1000], sodium pyruvate, proline and L-glutamine). TGF-β3 (10 ng/mL) was used as a positive control for differentiation while negative control wells were treated with 75 nL DMSO for normalization and calculating EC50 values. For the 384 well assay, serial dilution (1:3, 8-point dose-response curves from 5000 nM to 2.2 nM) and compound transfer was performed using the ECHO 550 (Labcyte, Sunnyvale, Calif.) into 384-well clear bottom assay plates (Greiner Bio-One) with appropriate DMSO backfill for a final DMSO concentration of 0.03%. hMSCs were plated at 8,000 cells/well in 80 μL/well Incomplete Chondrogenic Induction Medium (Lonza; DMEM, dexamethasone, ascorbate, insulin-transferrin-selenium [ITS supplement], gentamycin-amphotericin [GA-1000], sodium pyruvate, proline and L-glutamine). TGF-β3 (10 ng/mL) was used as a positive control for differentiation while negative control wells were treated with 25 nL DMSO for normalization and calculating EC50 values. Cells were incubated at 37° C. and 5% CO2 for 6 days. To image chondrogenic nodules, the cells were fixed using 4% formaldehyde (Electron Microscopy Sciences), and stained with 2 μg/mL Rhodamine B (Sigma-Aldrich) and 20 μM Nile Red (Sigma-Aldrich) [Johnson K., et. al, A Stem CellBased Approach to Cartilage Repair, Science, (2012), 336(6082), 717-721]. The nodules imaged (25 images per well for 96 well plates and 9 images per well for 384 well plates at 10× magnification) by excitation at 531 nm and emission at 625 nm and quantified using the CellInsight CX5 (Thermo Scientific). Area of nodules in each well was normalized to the average of 3 DMSO treated wells on the same plate using Excel (Microsoft Inc.). The normalized averages (fold change over DMSO) of 2 or 3 replicate wells for each compound concentration were calculated. Due to solubility limitations of some of the compounds, curve fitting was incomplete leading to inaccurate EC50 determinations.
Using TGF-β3 as a positive control, the concentration of representative compounds required to induce 50% levels of chondrogenesis is reported. In addition, the maximum activity of each compound and the respective dose that each compound reached maximum chondrogenesis activity is reported.

As for `CN(C)Cc1cncc(-c2ccc3[nH]nc(-c4cc5c(N6CCCCC6)cccc5[nH]4)c3c2)c1` [Compound 181, N,N-Dimethyl-1-(5-(3-(4-(piperidin-1-yl)-1H-indol-2-yl)-1H-indazol-5-yl)pyridin-3-yl)methanamine], the EC50 was greater than 10000 nM in the test with IL-6, 4160 nM in the test on SW480 colon cancer cells and 10 nM in test [1]. Moreover, in the test with IL-6, the inhibition at 10 µM was 40.7%. Besides, the Emax in test [1] came to 205%.

Take `O=C(Nc1cncc(-c2ccc3[nH]nc(-c4cc5c(N6CCCCC6)cccc5[nH]4)c3c2)c1)C1CC1` [Compound 188, N-(5-(3-(4-(Piperidin-1-yl)-1H-indol-2-yl)-1H-indazol-5-yl)pyridin-3-yl) cyclopropanecarboxamide]: the EC50 in the test on IL-6 is 5370 nM; in the test with SW480 colon cancer cells it was greater than 10000 nM; in test [1], 10 nM. Further, the inhibition at 10 µM in the test on SW480 colon cancer cells amounted to 29.5%. In addition, the Emax in test [1] was found to be 183%.

With `FC1(F)CCN(Cc2cncc(-c3ccc4[nH]nc(-c5cc6c(N7CCCCC7)cccc6[nH]5)c4c3)c2)C1` [Compound 194, 5-(5-((3,3-Difluoropyrrolidin-1-yl)methyl)pyridin-3-yl)-3-(4-(piperidin-1-yl)-1H-indol-2-yl)-1H-indazole], in the test with IL-6, the EC50 is greater than 10000 nM and the inhibition at 10 µM worked out at 29.2%. This compound returned an EC50 with SW480 colon cancer cells of 4430 nM. Besides, in test [1], the EC50 came to 30 nM and the Emax amounted to 160%.

In the case of `CN1CCN(c2cccc3[nH]c(-c4n[nH]c5ccc(-c6cncc(N)c6)cc45)cc23)CC1` [Compound 227, 5-(3-(4-(4-Methylpiperazin-1-yl)-1H-indol-2-yl)-1H-indazol-5-yl)pyridin-3-amine], the EC50 in the test on IL-6 was 1810 nM; in the test on SW480 colon cancer cells it was 2960 nM; in test [1], 100 nM. Moreover, the Emax in test [1] is 166%.

Consider `CC(C)C(=O)Nc1cncc(-c2ccc3[nH]nc(-c4cc5c(N6CCN(C)CC6)cccc5[nH]4)c3c2)c1` [Compound 233, N-(5-(3-(4-(4-Methylpiperazin-1-yl)-1H-indol-2-yl)-1H-indazol-5-yl)pyridin-3-yl)isobutyramide], for which the EC50 was 589 nM with IL-6, 3160 nM with SW480 colon cancer cells and 100 nM in test [1]. In addition, the Emax in test [1] worked out at 196%.

Compound `CN1CCN(c2cccc3[nH]c(-c4n[nH]c5ccc(-c6cncc(CN7CCCCC7)c6)cc45)cc23)CC1` [Compound 239, 3-(4-(4-Methylpiperazin-1-yl)-1H-indol-2-yl)-5-(5-(piperidin-1-ylmethyl)pyridin-3-yl)-1H-indazole] gave an EC50 in the test with IL-6 of 1150 nM. Moreover, in the test on SW480 colon cancer cells, the inhibition at 10 µM was found to be 51.7% and the EC50 was greater than 10000 nM. Further, in test [1], the EC50 worked out at 100 nM and the Emax is 198%.

Regarding `CN1CCN(c2cccc3[nH]c(-c4n[nH]c5ccc(-c6cncc(NC(=O)C7CCCC7)c6)cc45)cc23)CC1` [Compound 246, N-(5-(3-(4-(4-Methylpiperazin-1-yl)-1H-indol-2-yl)-1H-indazol-5-yl)pyridin-3-yl)cyclopentanecarboxamide], the EC50 was determined as 186 nM with IL-6, 2990 nM with SW480 colon cancer cells and 100 nM in test [1]. Also, the Emax in test [1] stood at 185%.

`CN1CCN(c2cccc3[nH]c(-c4n[nH]c5ccc(-c6cncnc6)cc45)cc23)CC1` [Compound 251, 3-(4-(4-Methylpiperazin-1-yl)-1H-indol-2-yl)-5-(pyrimidin-5-yl)-1H-indazole]: the EC50 in the test on IL-6 worked out at 152 nM; in the test on SW480 colon cancer cells, 3280 nM; in test [1] it was 100 nM. Also, in test [1], the Emax came out at 165%.

For the compound `c1cncc(-c2ccc3[nH]nc(-c4cc5ccccc5[nH]4)c3c2)c1` [Compound 256, 3-(1H-Indol-2-yl)-5-(pyridin-3-yl)-1H-indazole], the EC50 in the test on IL-6 was 10 nM; in the test with SW480 colon cancer cells, greater than 10000 nM; in test [1], 10 nM. The inhibition at 10 µM with SW480 colon cancer cells came out at 4.7%. Moreover, the Emax in test [1] turned out to be 162%.

Regarding `CCNCc1cncc(-c2ccc3[nH]nc(-c4cc5ccccc5[nH]4)c3c2)c1` [Compound 258, N-((5-(3-(1H-Indol-2-yl)-1H-indazol-5-yl)pyridin-3-yl)methyl)ethanamine], the EC50 came to 161 nM in the test on IL-6, 489 nM in the test on SW480 colon cancer cells and 10 nM in test [1]. For the same compound, the Emax in test [1] worked out at 532%.

In the case of `c1ccc2[nH]c(-c3n[nH]c4ccc(-c5cncc(CN6CCCC6)c5)cc34)cc2c1` [Compound 266, 3-(1H-Indol-2-yl)-5-(5-(pyrrolidin-1-ylmethyl)pyridin-3-yl)-1H-indazole], the EC50 was found to be 233 nM in the test on IL-6, 1040 nM in the test on SW480 colon cancer cells and 100 nM in test [1]. For the same compound, the Emax in test [1] amounted to 217%.

Turning to `CN(C)Cc1cncc(-c2ccc3[nH]nc(-c4cc5c(-c6cccs6)cccc5[nH]4)c3c2)c1` [Compound 349, N,N-Dimethyl-1-(5-(3-(4-(thiophen-2-yl)-1H-indol-2-yl)-1H-indazol-5-yl)pyridin-3-yl)methanamine], the EC50 was determined as 233 nM in the test on IL-6, 841 nM in the test with SW480 colon cancer cells and 30 nM in test [1]. Moreover, the Emax in test [1] was 181%.

Take `CS(=O)(=O)NCc1cc(F)cc(-c2cccc3[nH]c(-c4n[nH]c5ccc(-c6cncnc6)cc45)cc23)c1` [Compound 503, N-(3-Fluoro-5-(2-(5-(pyrimidin-5-yl)-1H-indazol-3-yl)-1H-indol-4-yl)benzyl) methanesulfonamide]: the EC50 in the test with IL-6 is 910 nM; in the test on SW480 colon cancer cells, 3170 nM; in test [1], 10 nM. In addition, in test [1], the Emax came to 194%.

For `c1ccc2[nH]c(-c3n[nH]c4ccc(-c5cncc(OCCN6CCCC6)c5)cc34)cc2c1` [Compound 686, 3-(1H-Indol-2-yl)-5-(5-(2-(pyrrolidin-1-yl)ethoxy)pyridin-3-yl)-1H-indazole], the EC50 in the test on IL-6 came to 208 nM; in the test on SW480 colon cancer cells, 574 nM; in test [1], 10 nM. The Emax in test [1] stood at 213%.
